# From patent US8012983B2, “Substituted triazolopyrazines useful for the treatment of degenerative and inflammatory diseases” (Galapagos NV, priority 2008, dated 2011)
# Assays:
# [1] = system: MMP1 expression by activated synovial fibroblasts (RASFs); experiment: 'MMP assay': complex trigger-induced MMP1 expression by synovial fibroblasts (MMP1 ELISA); type: cell-based; details: Homo sapiens, Fibroblast; RASFs, complex trigger, 48 hrs; read-out: MMP1 IC50
# Procedure, shortened: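 Synovial fibroblasts seeded at 3,000 cells/well, treated with compound, then triggered with supernatant of TNF-α-treated THP-1 cells, diluted in M199 with low FBS. MMP1 in supernatant quantified by sandwich ELISA with biotinylated anti-MMP1 and streptavidin-HRP chemiluminescent detection.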
# [2] = Tolerability of compounds in healthy mice (body weight); type: in vivo; details: 100 mg/kg/d, po, up to two weeks, DBA/1J mice, FIG. 6A
# Protocol: This protocol is designed to assess the tolerability of the compounds of the invention in healthy DBA/1J mice to determine the “therapeutic window” as defined by the dosing range between efficacious (mouse therapeutic Collagen-Induced Arthritis model) and toxic doses.
# Compounds are prepared for a dosing regimen of 100 mg/kg/d, po, free base, in a standard volume of injection of 0.1 mL/10 g of mice (equivalent to 10 mg/1 mL). For solution preparations, compounds were dissolved in 0.5% methyl-cellulose and 1% DMSO, once a week.
# Groups are randomized based on body weight and treated for up to two weeks. Each group contained 5 mice and received either test compound at 100 mg/kg, a comparison compound at 100 mg/kg/d (Compound A) or vehicle on a daily basis in a dosing volume of 200 μL per mouse.
# Potential drug toxicity is monitored by observation every day and by recording body weights three times a week for weight loss. All statistical analyses were performed using Student's t test.
# To assess the general tolerability of the treatments, the total body weight is followed throughout the course of the study.
SMILES,IC50 [1] [nM],General tolerability: total body weight compared to the vehicle [2]
"CC(C)N1C[C@@H]2C[C@H]1CN2c1ccc(Nc2ncc(-c3ccc4c(c3)CNC4=O)n3ncnc23)cc1 [Compound 1, 5-{8-[4-((1S,4S)-5-Isopropyl-2,5-diaza-bicyclo[2.2.1]hept-2-yl)-phenylamino]-[1,2,4]triazolo[1,5-a]pyrazin-5-yl}-2,3-dihydro-isoindol-1-one]",> 1000,no statistically significant difference
"CC(C)N1C[C@@H]2C[C@H]1CN2c1ccc(Nc2ncc(-c3coc(C(N)=O)c3)n3ncnc23)cc1 [Compound 2, 4-{8-[4-((1S,4S)-5-Isopropyl-2,5-diaza-bicyclo[2.2.1]hept-2-yl)-phenylamino]-[1,2,4]triazolo[1,5-a]pyrazin-5-yl}-furan-2-carboxamide]",1 to 1000,no statistically significant difference
